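These data come from cells grown in 96-well plates and exposed to compound for 48 hours at five concentrations. TGI: concentration producing complete growth inhibition.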
Experiments:
Test in all cases: inhibition of tumour cell growth, NCI panel, 48 h
DU-145 prostate = test system: DU-145 prostate
TK-10 renal = test system: TK-10 renal
786-0 renal = test system: 786-0 renal
OVCAR-4 ovarian = test system: OVCAR-4 ovarian
MDA-MB-231 breast = test system: MDA-MB-231 breast
SF-268 CNS = test system: SF-268 CNS
SNB-75 CNS = test system: SNB-75 CNS
HOP-92 NSCLC = test system: HOP-92 NSCLC
SK-OV-3 ovarian = test system: SK-OV-3 ovarian
NCI/ADR-RES ovarian = test system: NCI/ADR-RES ovarian
RPMI-8226 leukemia = test system: RPMI-8226 leukemia
SK-MEL-5 melanoma = test system: SK-MEL-5 melanoma
HCT-116 colon = test system: HCT-116 colon
T-47D breast = test system: T-47D breast
CAKI-1 renal = test system: CAKI-1 renal
IGROV1 ovarian = test system: IGROV1 ovarian
SK-MEL-2 melanoma = test system: SK-MEL-2 melanoma
M14 melanoma = test system: M14 melanoma
SF-295 CNS = test system: SF-295 CNS
NCI-H460 lung = test system: NCI-H460 lung
HT29 colon = test system: HT29 colon
NCI-H522 lung = test system: NCI-H522 lung
NCI-H226 lung = test system: NCI-H226 lung
SN12C renal = test system: SN12C renal
SF-539 CNS = test system: SF-539 CNS
UO-31 renal = test system: UO-31 renal
MDA-N = test system: MDA-N
MDA-MB-435 = test system: MDA-MB-435
UACC-62 melanoma = test system: UACC-62 melanoma
RXF 393 renal = test system: RXF 393 renal
OVCAR-3 ovarian = test system: OVCAR-3 ovarian
MALME-3M melanoma = test system: MALME-3M melanoma
PC-3 prostate = test system: PC-3 prostate
KM12 colon = test system: KM12 colon
OVCAR-5 ovarian = test system: OVCAR-5 ovarian
SW-620 colon = test system: SW-620 colon
SNB-19 CNS = test system: SNB-19 CNS
HS 578T breast = test system: HS 578T breast
SK-MEL-28 melanoma = test system: SK-MEL-28 melanoma
CCRF-CEM leukemia = test system: CCRF-CEM leukemia
NCI-H23 lung = test system: NCI-H23 lung
HL-60(TB) leukemia = test system: HL-60(TB) leukemia
U251 CNS = test system: U251 CNS
LOX IMVI melanoma = test system: LOX IMVI melanoma
HCT-15 colon = test system: HCT-15 colon
MOLT-4 leukemia = test system: MOLT-4 leukemia
HCC-2998 colon = test system: HCC-2998 colon
A498 renal = test system: A498 renal
A549 NSCLC = test system: A549 NSCLC
HOP-62 NSCLC = test system: HOP-62 NSCLC
COLO 205 colon = test system: COLO 205 colon
K-562 leukemia = test system: K-562 leukemia
ACHN renal = test system: ACHN renal
OVCAR-8 ovarian = test system: OVCAR-8 ovarian
MCF7 breast = test system: MCF7 breast
UACC-257 melanoma = test system: UACC-257 melanoma
EKVX NSCLC = test system: EKVX NSCLC

## N/C(=N/N=C/c1cc(Br)cc(Br)c1O)NO
DU-145 prostate
  TGI: > 23.8 µM
TK-10 renal
  TGI: > 45.6 µM
786-0 renal
  TGI: > 40.7 µM
OVCAR-4 ovarian
  TGI: 71.4 µM
MDA-MB-231 breast
  TGI: 40.6 µM
SF-268 CNS
  TGI: 8.75 µM
SNB-75 CNS
  TGI: > 28.3 µM
HOP-92 NSCLC
  TGI: 25.2 µM
SK-OV-3 ovarian
  TGI: > 47.6 µM
NCI/ADR-RES ovarian
  TGI: 18.9 µM
RPMI-8226 leukemia
  TGI: 15.7 µM
SK-MEL-5 melanoma
  TGI: 38.5 µM
HCT-116 colon
  TGI: 44 µM
T-47D breast
  TGI: 11.2 µM
CAKI-1 renal
  TGI: 2.54 µM
IGROV1 ovarian
  TGI: 4.66 µM
SK-MEL-2 melanoma
  TGI: 82.9 µM
M14 melanoma
  TGI: 12.3 µM
SF-295 CNS
  TGI: > 45.9 µM
NCI-H460 lung
  TGI: 27.5 µM
HT29 colon
  TGI: > 100 µM
NCI-H522 lung
  TGI: 88.6 µM
NCI-H226 lung
  TGI: 6.54 µM
SN12C renal
  TGI: 8.8 µM
SF-539 CNS
  TGI: > 31.9 µM
UO-31 renal
  TGI: 8.4 µM
MDA-N
  TGI: > 100 µM
MDA-MB-435
  TGI: > 81.2 µM
UACC-62 melanoma
  TGI: 7.52 µM
RXF 393 renal
  TGI: 53.4 µM
OVCAR-3 ovarian
  TGI: 13.1 µM
MALME-3M melanoma
  TGI: 17.1 µM
PC-3 prostate
  TGI: > 59 µM
KM12 colon
  TGI: 51.4 µM
OVCAR-5 ovarian
  TGI: > 100 µM
SW-620 colon
  TGI: > 100 µM
SNB-19 CNS
  TGI: > 80.7 µM
HS 578T breast
  TGI: > 75.3 µM
SK-MEL-28 melanoma
  TGI: > 100 µM
CCRF-CEM leukemia
  TGI: 3.26 µM
NCI-H23 lung
  TGI: > 80.2 µM
HL-60(TB) leukemia
  TGI: 2.31 µM
U251 CNS
  TGI: > 100 µM
LOX IMVI melanoma
  TGI: 19.8 µM
HCT-15 colon
  TGI: > 46.6 µM
MOLT-4 leukemia
  TGI: 5.58 µM
HCC-2998 colon
  TGI: > 53.8 µM
A498 renal
  TGI: 16 µM
A549 NSCLC
  TGI: 53.7 µM
HOP-62 NSCLC
  TGI: 25.9 µM
COLO 205 colon
  TGI: 49.8 µM
K-562 leukemia
  TGI: 21.5 µM
ACHN renal
  TGI: 9.66 µM
OVCAR-8 ovarian
  TGI: > 25.4 µM
MCF7 breast
  TGI: > 89.3 µM
UACC-257 melanoma
  TGI: 99.5 µM
EKVX NSCLC
  TGI: 75.1 µM
